The supplement of paper PMC10307832

Key:
Assay in all cases: relative viability (nuclei count vs DMSO), 5 days (fraction); higher = more cells survive
[1] = compound: CN1CCC(CC1)OC2=CC(=C(C=C2)NC3=NC=C4C(=N3)N(C(=O)N4C)C5CCCC5)OC [AZ3146] + CS(=O)(=O)N1CCN(Cc2cc3nc(-c4cccc5[nH]ncc45)nc(N4CCOCC4)c3s2)CC1 [Pictilisib] (partner 1 µM)
How it was run: (§1)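 Relative viability was taken as the ratio of nuclei in treated wells to nuclei in vehicle wells. Lung cancer cell lines in 1536-well plates received compounds by pin tool one day after seeding, either one drug alone or a fixed anchor-drug dose plus five library-drug doses (not always all listed) in √10 steps. Nuclei were counted on 4× images after 5 days of treatment, and values are medians of duplicate plates.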

[2] = compound: CCOC(=O)CCNc1cc(N2CCc3ccccc3CC2)nc(-c2ccccn2)n1 [GSK-J4] + N=C(N)NC(=N)NCCc1ccccc1 [Phenformin] (partner 250 µM)
How it was run: as §1

[3] = compound: CN1CCC(CC1)OC2=CC(=C(C=C2)NC3=NC=C4C(=N3)N(C(=O)N4C)C5CCCC5)OC [AZ3146] + CC(=O)Nc1cccc(-n2c(=O)n(C3CC3)c(=O)c3c(Nc4ccc(I)cc4F)n(C)c(=O)c(C)c32)c1 [Trametinib] (partner 0.02 µM)
How it was run: as §1

[4] = compound: CN1CCC(CC1)OC2=CC(=C(C=C2)NC3=NC=C4C(=N3)N(C(=O)N4C)C5CCCC5)OC [AZ3146] + O=C(CCCCCCC(=O)Nc1ccccc1)NO [Vorinostat] (partner 1 µM)
How it was run: as §1

Row | Cell Line | relative viability ([1]; first compound 0.08 µM) | relative viability ([1]; first compound 0.253 µM) | relative viability ([1]; first compound 0.8 µM) | relative viability ([1]; first compound 2.53 µM) | relative viability ([1]; first compound 8 µM) | relative viability ([2]; first compound 0.5 µM) | relative viability ([2]; first compound 1.581 µM) | relative viability ([2]; first compound 5 µM) | relative viability ([2]; first compound 15.81 µM) | relative viability ([2]; first compound 50 µM) | relative viability ([3]; first compound 0.08 µM) | relative viability ([3]; first compound 0.253 µM) | relative viability ([3]; first compound 0.8 µM) | relative viability ([3]; first compound 2.53 µM) | relative viability ([3]; first compound 8 µM) | relative viability ([4]; first compound 0.08 µM) | relative viability ([4]; first compound 0.253 µM) | relative viability ([4]; first compound 0.8 µM) | relative viability ([4]; first compound 2.53 µM) | relative viability ([4]; first compound 8 µM)
1 | NCI-H358 | 0.355 | 0.39 | 0.394 | 0.398 | 0.326 | 0.443 | 0.264 | 0.349 | 0.266 | 0.255 | 0.162 | 0.123 | 0.139 | 0.127 | 0.12 | 0.571 | 0.687 | 0.631 | 0.723 | 0.171
2 | NCI-H441 | 0.46 | 0.532 | 0.467 | 0.537 | 0.503 | 0.819 | 0.852 | 0.641 | 0.805 | 0.809 | 0.512 | 0.438 | 0.429 | 0.501 | 0.362 | 0.674 | 0.803 | 0.557 | 0.821 | 0.647
3 | NCI-H460 | 0.293 | 0.323 | 0.297 | 0.416 | 0.461 | 0.515 | 0.365 | 0.361 | 0.472 | 0.398 | 0.132 | 0.134 | 0.0913 | 0.0867 | 0.107 | 0.623 | 0.813 | 0.707 | 0.693 | 0.0632
4 | NCI-H520 | 0.255 | 0.287 | 0.303 | 0.284 | 0.31 | 0.582 | 0.478 | 0.46 | 0.303 | 0.445 | 0.643 | 0.691 | 0.54 | 0.677 | 0.49 | 0.588 | 0.7 | 0.685 | 0.783 | 0.537
5 | NCI-H596 | 0.361 | 0.374 | 0.413 | 0.302 | 0.41 | 0.821 | 0.67 | 0.626 | 0.633 | 0.732 | 0.806 | 0.643 | 0.766 | 0.89 | 0.919 | 0.53 | 0.541 | 0.586 | 0.571 | 0.587
6 | NCI-H647 | 0.485 | 0.423 | 0.258 | 0.366 | 0.476 | 0.618 | 0.398 | 0.415 | 0.498 | 0.532 | 0.365 | 0.44 | 0.366 | 0.476 | 0.317 | 0.537 | 0.426 | 0.607 | 0.667 | 0.186
7 | NCI-H650 | 0.661 | 0.837 | 0.634 | 0.905 | 1.01 | 0.455 | 0.419 | 0.322 | 0.422 | 0.423 | 0.899 | 0.959 | 0.959 | 0.994 | 1.09 | 0.237 | 0.374 | 0.265 | 0.447 | 0.4
8 | NCI-H661 | 0.489 | 0.417 | 0.34 | 0.463 | 0.446 | 0.269 | 0.312 | 0.238 | 0.258 | 0.266 | 0.588 | 0.519 | 0.572 | 0.555 | 0.47 | 0.701 | 0.846 | 0.786 | 0.813 | 0.505
